Pest or weed control data for 27 molecules are collected here from patent publication US9204653B2, “5-fluoro pyrimidine derivatives” (DOW AGROSCIENCES LLC, priority 2008, dated 2015).

The structures appear in SMILES notation. Read-outs that look alike come from different tables or passages of the source.

The test system of the assay is Mycosphaerella graminicola; Anamorph: Septoria tritici; Bayer Code SEPTTR. The assay can be described thus: Leaf blotch of wheat, foliar fungicide treatment, one day protectant (1DP) or three day curative (3DC). The format is in vivo, Septoria tritici on wheat plants (variety Yuma). The settings on record: Zymoseptoria tritici, rating of percent disease control.
[1] abbreviates: 24 h, one day protectant (1DP), read-out: SETTTR 1DP 25 ppm.
Setting [2] is: 24 h, one day protectant (1DP), read-out: SEPTTR 1DP 100 ppm.
Where [3] appears, read: 72 h, three day curative (3DC), read-out: SEPTTR 3DC 25 ppm.
The mark [4] stands for this setting: 72 h, three day curative (3DC), read-out: SEPTTR 3DC 100 ppm.

Consider `COc1cc(F)c(COc2ncc(F)c(N)n2)cn1` [Compound 185], for which the pest or weed control at 25 ppm under setting [1] was in the range of 76 to 100% and the pest or weed control at 25 ppm under setting [3] was in the range of 76 to 100%. Moreover, the pest or weed control at 100 ppm fell in the range of 76 to 100% under setting [2] and 76 to 100% under setting [4].
Turning to `CCCNC(=O)Nc1nc(OCc2ccc(F)cc2)ncc1F` [Compound 186], the pest or weed control at 25 ppm lay in the range of 51 to 75% under setting [1] and 0 to 25% under setting [3]. The pest or weed control at 100 ppm under setting [2] was in the range of 51 to 75% and the pest or weed control at 100 ppm under setting [4] was 0 to 25%.
Regarding `Cc1cccc(COc2ncc(F)c(N)n2)c1` [Compound 188], the pest or weed control at 25 ppm is, setting by setting: under setting [1], 76 to 100%; under setting [3], 76 to 100%. Besides, the pest or weed control at 100 ppm runs as follows: under setting [2], 76 to 100%; under setting [4], 76 to 100%.
On to `COc1cccc(COc2ncc(F)c(NC(=O)c3ccccc3)n2)c1` [Compound 191], for which the pest or weed control at 25 ppm reads like this: under setting [1], 76 to 100%; under setting [3], 76 to 100%. The pest or weed control at 100 ppm reads like this: under setting [2], 76 to 100%; under setting [4], 76 to 100%.
On to `CC(=O)OC[C@H]1O[C@@H](Oc2ncc(F)c(N)n2)[C@H](OC(C)=O)[C@@H](OC(C)=O)[C@@H]1OC(C)=O` [Compound 192], for which the pest or weed control at 25 ppm fell in the range of 76 to 100% under setting [1] and 51 to 75% under setting [3]. Also, the pest or weed control at 100 ppm under setting [2] was 76 to 100% and the pest or weed control at 100 ppm under setting [4] was 76 to 100%.
In the case of `Nc1nc(OCc2ccc(OCc3ccccc3)cc2)ncc1F` [Compound 193], the pest or weed control at 25 ppm fell in the range of 76 to 100% under setting [1] and 76 to 100% under setting [3]. In addition, the pest or weed control at 100 ppm was 76 to 100% under setting [2] and 76 to 100% under setting [4].
As to `Nc1nc(OCc2c(F)cc(F)cc2F)ncc1F` [Compound 194], the pest or weed control at 25 ppm under setting [1] lay within 76 to 100% and the pest or weed control at 25 ppm under setting [3] fell in the range of 76 to 100%. For the same molecule, the pest or weed control at 100 ppm reads like this: under setting [2], 76 to 100%; under setting [4], 76 to 100%.
In the case of `OCNc1nc(OCc2cccs2)ncc1F` [Compound 196], the pest or weed control at 25 ppm is, setting by setting: under setting [1], 76 to 100%; under setting [3], 76 to 100%. For the same molecule, the pest or weed control at 100 ppm by setting is: under setting [2], 76 to 100%; under setting [4], 76 to 100%.
For `CC(C)c1ccc(COc2ncc(F)c(N)n2)cc1` [Compound 197], the pest or weed control at 25 ppm is, setting by setting: under setting [1], 51 to 75%; under setting [3], 51 to 75%. For the same molecule, the pest or weed control at 100 ppm lay in the range of 76 to 100% under setting [2] and 76 to 100% under setting [4].
As for `CCOC(=O)COC(=O)Nc1nc(OCc2cccc(F)c2)ncc1F` [Compound 199], the pest or weed control at 25 ppm reads like this: under setting [1], 0 to 25%; under setting [3], 51 to 75%. Besides, the pest or weed control at 100 ppm reads like this: under setting [2], 76 to 100%; under setting [4], 76 to 100%.
For the molecule `COc1ccc(COc2ncc(F)c(NSc3ccccc3[N+](=O)[O-])n2)cc1F` [Compound 200], the pest or weed control at 25 ppm runs as follows: under setting [1], 0 to 25%; under setting [3], 0 to 25%. Also, the pest or weed control at 100 ppm under setting [2] lay within 26 to 50% and the pest or weed control at 100 ppm under setting [4] was 0 to 25%.
Regarding `COc1cccc(COc2ncc(F)c(NC(=O)NCc3ccccc3F)n2)c1` [Compound 201], the pest or weed control at 25 ppm was in the range of 0 to 25% under setting [1] and 0 to 25% under setting [3]. Also, the pest or weed control at 100 ppm under setting [2] fell in the range of 0 to 25% and the pest or weed control at 100 ppm under setting [4] is 0 to 25%.
Consider `Fc1ccc(COc2ncc(F)c(NC3CCCCC3)n2)cc1` [Compound 205], for which the pest or weed control at 25 ppm lay within 0 to 25% under setting [1] and 0 to 25% under setting [3]. Further, the pest or weed control at 100 ppm by setting is: under setting [2], 0 to 25%; under setting [4], 51 to 75%.
On to `Cc1ccc(COc2ncc(F)c(NC(=O)Nc3ccccc3F)n2)cc1` [Compound 208], for which the pest or weed control at 25 ppm is 0 to 25% under setting [1] and 0 to 25% under setting [3]. The pest or weed control at 100 ppm is, setting by setting: under setting [2], 0 to 25%; under setting [4], 26 to 50%.
With `Nc1nc(OCc2ccc(F)c(F)c2)ncc1F` [Compound 210], the pest or weed control at 25 ppm by setting is: under setting [1], 76 to 100%; under setting [3], 76 to 100%. The pest or weed control at 100 ppm runs as follows: under setting [2], 76 to 100%; under setting [4], 76 to 100%.
In the case of `Nc1nc(OCc2cccc(I)c2)ncc1F` [Compound 212], the pest or weed control at 25 ppm reads like this: under setting [1], 76 to 100%; under setting [3], 76 to 100%. The pest or weed control at 100 ppm by setting is: under setting [2], 76 to 100%; under setting [4], 76 to 100%.
Regarding `Nc1nc(OCc2cccs2)ncc1F` [Compound 213], the pest or weed control at 25 ppm was 76 to 100% under setting [1] and 76 to 100% under setting [3]. Also, the pest or weed control at 100 ppm reads like this: under setting [2], 76 to 100%; under setting [4], 76 to 100%.
`COc1ccc(COc2ncc(F)c(NCO)n2)cc1F` [Compound 216]: the pest or weed control at 25 ppm lay in the range of 76 to 100% under setting [1] and 51 to 75% under setting [3]. The pest or weed control at 100 ppm by setting is: under setting [2], 76 to 100%; under setting [4], 76 to 100%.
For the molecule `Nc1nc(OCC2Cc3ccccc3O2)ncc1F` (stereo not drawn) [Compound 219], the pest or weed control at 25 ppm under setting [1] fell in the range of 51 to 75% and the pest or weed control at 25 ppm under setting [3] was 0 to 25%. For the same molecule, the pest or weed control at 100 ppm lay within 76 to 100% under setting [2] and 51 to 75% under setting [4].
Regarding `O=C(Nc1nc(OCc2ccc(F)cc2)ncc1F)OCc1ccccc1` [Compound 220], the pest or weed control at 25 ppm is 76 to 100% under setting [1] and 76 to 100% under setting [3]. The pest or weed control at 100 ppm fell in the range of 76 to 100% under setting [2] and 76 to 100% under setting [4].
As for `COc1ccccc1Oc1ncc(F)c(N)n1` [Compound 223], the pest or weed control at 25 ppm runs as follows: under setting [1], 76 to 100%; under setting [3], 76 to 100%. Besides, the pest or weed control at 100 ppm by setting is: under setting [2], 76 to 100%; under setting [4], 76 to 100%.
Regarding `COc1ccc(Br)c(COc2ncc(F)c(N)n2)c1F` [Compound 224], the pest or weed control at 25 ppm lay in the range of 26 to 50% under setting [1] and 0 to 25% under setting [3]. The pest or weed control at 100 ppm runs as follows: under setting [2], 76 to 100%; under setting [4], 26 to 50%.
Turning to `CCOC(CC)Nc1nc(OCc2ccc(F)cc2)ncc1F` (stereo not drawn) [Compound 227], the pest or weed control at 25 ppm is, setting by setting: under setting [1], 76 to 100%; under setting [3], 76 to 100%. Further, the pest or weed control at 100 ppm was 76 to 100% under setting [2] and 76 to 100% under setting [4].
`COc1ccccc1COc1ncc(F)c(NSc2ccccc2[N+](=O)[O-])n1` [Compound 230]: the pest or weed control at 25 ppm lay in the range of 76 to 100% under setting [1] and 0 to 25% under setting [3]. Besides, the pest or weed control at 100 ppm under setting [2] is 76 to 100% and the pest or weed control at 100 ppm under setting [4] was 0 to 25%.
Turning to `O=C(Nc1ccccc1F)Nc1nc(OCc2cccc(F)c2)ncc1F` [Compound 231], the pest or weed control at 25 ppm runs as follows: under setting [1], 0 to 25%; under setting [3], 0 to 25%. Moreover, the pest or weed control at 100 ppm is 0 to 25% under setting [2] and 0 to 25% under setting [4].
For `Cc1ccc(COc2ncc(F)c(N)n2)cc1F` [Compound 232], the pest or weed control at 25 ppm reads like this: under setting [1], 76 to 100%; under setting [3], 76 to 100%. Further, the pest or weed control at 100 ppm was 76 to 100% under setting [2] and 76 to 100% under setting [4].
For the molecule `CN(C)/C=N/c1nc(OC(=O)c2c(Cl)cccc2Cl)ncc1F` [Compound 234], the pest or weed control at 25 ppm reads like this: under setting [1], 76 to 100%; under setting [3], 76 to 100%. The pest or weed control at 100 ppm runs as follows: under setting [2], 76 to 100%; under setting [4], 76 to 100%.
